Experimental data as given in patent EP0830600B1, “FUNCTIONAL BIOASSAY FOR G-PROTEIN COUPLED RECEPTOR AGONISTS AND ANTAGONISTS” (Praecis Pharmaceuticals Incorporated, priority 1995, dated 1996).

What was measured:
[1] = tested on: untransfected CHO DUKX B 1 cells; test: MTT cell viability, control untransfected CHO cells; format: cell-based, Chinese Hamster; conditions: carbachol or pirenzepine; 5 days; Figure 2A
[2] = tested on: untransfected CHO cells; test: Cell morphology, control untransfected CHO cells; format: cell-based, Chinese Hamster; conditions: cells not expressing the recombinant β2-adrenergic receptor
Protocol: . Several days later, cells were analyzed by photomicroscopy to determine the effect of treatment on cell morphology. […]. Salbutamol induced both a change in cell shape (i.e., elongation of the cells) and an alignment of the cells with each other. […]. Assessment of the agonist or antagonist properties of individual compounds or libraries of compounds can be achieved by, for example, microscopic observation of the cells, or alternatively, by video digitizing techniques to quantify cell shape changes and/or cell alignment changes. […]

[3] = biological target: T1, human β2-adrenergic receptor (Homo sapiens, UniProt P07550); test: Cell morphology (photomicroscopy) of β2-adrenergic receptor-expressing cell line; format: cell-based; conditions: several days
T1 construct: expressed in transfected cells
T1 sequence (P07550 whole entry): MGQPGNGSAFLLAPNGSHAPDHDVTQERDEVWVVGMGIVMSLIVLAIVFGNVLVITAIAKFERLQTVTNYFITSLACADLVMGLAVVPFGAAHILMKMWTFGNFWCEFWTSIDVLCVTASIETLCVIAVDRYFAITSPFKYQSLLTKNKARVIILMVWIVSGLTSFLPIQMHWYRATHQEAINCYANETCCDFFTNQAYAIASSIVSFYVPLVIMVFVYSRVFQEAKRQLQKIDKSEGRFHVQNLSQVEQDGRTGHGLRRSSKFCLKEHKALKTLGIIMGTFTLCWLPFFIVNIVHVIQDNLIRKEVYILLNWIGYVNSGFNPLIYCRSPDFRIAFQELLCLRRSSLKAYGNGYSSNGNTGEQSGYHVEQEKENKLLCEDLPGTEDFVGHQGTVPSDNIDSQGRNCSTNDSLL
Protocol: Several days later, cells were analyzed by photomicroscopy to determine the effect of treatment on cell morphology. […] Assessment of the agonist or antagonist properties of individual compounds or libraries of compounds can be achieved by, for example, microscopic observation of the cells, or alternatively, by video digitizing techniques to quantify cell shape changes and/or cell alignment changes.

Q: How did the “viability of untransfected CHO cells (MTT)” value [1] turn out when `C[N+](C)(C)CCOC(N)=O` [carbachol] was run?
A: little effect

Q: With `CC(C)(C)NCC(O)c1ccc(O)c(CO)c1` (centres unmarked) [salbutamol] as the compound, how does the “change in cell shape or alignment on untransfected CHO cells” value [2] read?
A: no detectable change in cell shape or alignment

Q: `CN1CCN(CC(=O)N2c3ccccc3C(=O)Nc3cccnc32)CC1` [pirenzepine] was tested. Which “viability of untransfected CHO cells (MTT)” value [1] did it give?
A: little effect

Q: `COc1ccc(OC)c(C(O)C(C)NC(C)(C)C)c1` (centres unmarked) [butoxamine] was tested. Which “cell morphology, antagonism of salbutamol effect” value ([3]; 10 nM butoxamine together with salbutamol) did it give?
A: indistinguishable from control cells

Q: And the “effect of treatment on cell morphology (cell shape and alignment)” value ([3]; compound alone (salbutamol 1 nM), photomicroscopy, Figure 4)?
A: no detectable change in cell shape or alignment
